From patent US20230061736A1, “GPR119 AGONISTS” (Kallyope, Inc., priority 2019, published 2023)

Target: T1, human GPR119 (hGPR119) (Homo sapiens, UniProt Q8TDV5)
T1 construct: expressed in transfected cells
T1 sequence (Q8TDV5 1-335): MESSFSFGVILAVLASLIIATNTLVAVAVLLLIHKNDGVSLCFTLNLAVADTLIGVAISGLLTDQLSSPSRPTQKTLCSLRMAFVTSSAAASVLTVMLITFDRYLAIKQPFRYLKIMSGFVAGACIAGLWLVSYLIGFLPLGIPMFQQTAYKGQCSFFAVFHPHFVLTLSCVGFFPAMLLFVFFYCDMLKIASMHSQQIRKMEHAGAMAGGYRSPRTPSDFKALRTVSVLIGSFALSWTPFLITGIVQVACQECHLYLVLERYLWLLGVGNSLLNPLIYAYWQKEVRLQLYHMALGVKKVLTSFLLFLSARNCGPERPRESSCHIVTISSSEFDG
Test: cAMP accumulation assay (cAMP Gs dynamic HTRF kit)
Format: cell-based
Conditions: CHO-K1 cells stably expressing hGPR119, 4-parameter fit; for Emax: 1 h, % activity normalized to Max/Min controls; for EC50: cAMP accumulation
Outline: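 Read-out is HTRF 665/620 nm ratio after 1 h detection at ambient temperature, converted to % activity against positive and negative controls, EC50 and Max activity by 4-parameter fit. Compounds were titrated onto ~10,000 thawed hGPR119-CHO-K1 cells/well for 60 min at 37° C/5% CO2.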

Compound | Emax | EC50
CCc1cnc(N2CCC(CCOCc3ccc(CC(=O)N4CC(CNC[C@@H](O)[C@H](O)[C@@H](O)[C@@H](O)CO)C4)c(F)c3)CC2)nc1 [Example 88] | 50 to 100% | 1000 to 10000 nM
O=C(NCCCCS(=O)(=O)O)C1CN(C(=O)Cc2ccc(OCCCC3CCN(c4ncc(Cl)cn4)CC3)cc2F)C1 [Example 173, 4-[[1-[2-[4-[3-[1-(5-chloropyrimidin-2-yl)-4-piperidyl]propoxy]-2-fluoro-phenyl]acetyl]azetidine-3-carbonyl]amino] butane-1-sulfonic acid] | 100 to 130% | 
O=C(Cc1ccc(CC(=O)N2CC(CNC[C@H](O)[C@@H](O)[C@H](O)[C@H](O)CO)C2)c(F)c1)OCCC1CCN(c2ncc(Cl)cn2)CC1 (racemic) [Example 92, 2-[1-(5-chloropyrimidin-2-yl)-4-piperidyl]ethyl 2-[3-fluoro-4-[2-oxo-2-[3-[[[rac-(2S,3R,4R,5R)-2,3,4,5,6-pentahydroxyhexyl]amino]methyl]azetidin-1-yl]ethyl]phenyl]acetate] | 100 to 130% | 100 to 1000 nM
O=C(Cc1ccc(OCCCC2CCN(c3ncc(Cl)cn3)CC2)cc1F)NCCCCCC(=O)N1C[C@H](O)[C@@H](O)C1 [Example 25, 2-[4-[3-[1-(5-chloropyrimidin-2-yl)-4-piperidyl]propoxy]-2-fluoro-phenyl]-N-[6-[(3S,4S)-3,4-dihydroxypyrrolidin-1-yl]-6-oxo-hexyl]acetamide] | ≥ 130% | 100 to 1000 nM
O=C(NCCO[C@H]1O[C@H](CO)[C@@H](O)[C@H](O)[C@@H]1O)C1CN(C(=O)Cc2ccc(OCCCC3CCN(c4ncc(Cl)cn4)CC3)cc2F)C1 (racemic) [Example 31, 1-[2-[4-[3-[1-(5-chloropyrimidin-2-yl)-4-piperidyl]propoxy]-2-fluoro-phenyl]acetyl]-N-[2-[rac-(2S,3S,4S,5S,6R)-3,4,5-trihydroxy-6-(hydroxymethyl)tetrahydropyran-2-yl]oxyethyl]azetidine-3-carboxamide] | 100 to 130% | 100 to 1000 nM
O=C(OCCC1CCN(c2ncc(Cl)cn2)CC1)c1ccc(CC(=O)N2CC(CNC[C@H](O)[C@@H](O)[C@H](O)[C@H](O)CO)C2)c(F)c1 (racemic) [Example 91, 2-[1-(5-chloropyrimidin-2-yl)-4-piperidyl]ethyl 3-fluoro-4-[2-oxo-2-[3-[[[rac-(2S,3R,4R,5R)-2,3,4,5,6-pentahydroxyhexyl]amino]methyl]azetidin-1-yl]ethyl]benzoate] | 100 to 130% | 1000 to 10000 nM
O=C(Cc1ccc(OCCCC2CCN(c3ncc(Cl)cn3)CC2)cc1F)N1CC(CCNC(CO)(CO)CO)C1 [Example 59, 2-(4-(3-(1-(5-chloropyrimidin-2-yl)piperidin-4-yl)propoxy)-2-fluorophenyl)-1-(3-(2-((1,3-dihydroxy-2-(hydroxymethyl)propan-2-yl)amino)ethyl)azetidin-1-yl)ethan-1-one] | 100 to 130% | 100 to 1000 nM
O=C(CC1CN(C(=O)Cc2ccc(OCCCC3CCN(c4ncc(Cl)cn4)CC3)cc2F)C1)NCCS(=O)(=O)O [Example 176, 2-[[2-[1-[2-[4-[3-[1-(5-chloropyrimidin-2-yl)-4-piperidyl]propoxy]-2-fluoro-phenyl]acetyl]azetidin-3-yl]acetyl]amino]ethanesulfonic acid] | 100 to 130% | 100 to 1000 nM
COC(=O)c1cnc(N2CCC(CCCOc3ccc(CC(=O)N4CC(CNC[C@H](O)[C@@H](O)[C@H](O)[C@H](O)CO)C4)c(F)c3)CC2)nc1 [Example 87, methyl 2-[4-[3-[3-fluoro-4-[2-oxo-2-[3-[[[(2S,3R,4R,5R)-2,3,4,5,6-pentahydroxyhexyl]amino]methyl]azetidin-1-yl]ethyl]phenoxy]propyl]-1-piperidyl]pyrimidine-5-carboxylate] | 100 to 130% | 100 to 1000 nM
CC(C)OC(=O)N1CCC2(CC1)CC(CCOc1ccc(CC(=O)N3CC(CNC[C@H](O)[C@@H](O)[C@H](O)[C@H](O)CO)C3)c(F)c1)C2 [Example 118, isopropyl 2-[2-[3-fluoro-4-[2-oxo-2-[3-[[[(2S,3R,4R,5R)-2,3,4,5,6-pentahydroxyhexyl]amino]methyl]azetidin-1-yl]ethyl]phenoxy]ethyl]-7-azaspiro[3.5]nonane-7-carboxylate] | 100 to 130% | 100 to 1000 nM
O=C(CC1CN(C(=O)Cc2ccc(OCCCC3CCN(c4ncc(Cl)cn4)CC3)cc2F)C1)NCCCCS(=O)(=O)O [Example 178, 4-[[2-[1-[2-[4-[3-[1-(5-chloropyrimidin-2-yl)-4-piperidyl]propoxy]-2-fluoro-phenyl]acetyl]azetidin-3-yl]acetyl]amino]butane-1-sulfonic acid] | 100 to 130% | 100 to 1000 nM
COCc1cnc(N2CCC(CCCOc3ccc(CC(=O)N4CC(C(=O)NCCNC(=O)NC(CO)(CO)CO)C4)c(F)c3)CC2)nc1 [Example 27, 1-[2-[2-fluoro-4-[3-[1-[5-(methoxymethyl)pyrimidin-2-yl]-4-piperidyl]propoxy]phenyl]acetyl]-N-[2-[[2-hydroxy-1,1-bis (hydroxymethyl)ethyl]carbamoylamino]ethyl]azetidine-3-carboxamide] | 100 to 130% | 100 to 1000 nM

Further lines, results first:

Emax | EC50 | Compound
100 to 130% | ≤ 100 nM | CCCc1cnc(N2CCC(CCCOc3ccc(CC(=O)N4CC(CNCC(O)(CO)CO)C4)c(F)c3)CC2)nc1 [Example 71, 1-(3-(((2,3-dihydroxy-2-(hydroxymethyl)propyl)amino)methyl)azetidin-1-yl)-2-(2-fluoro-4-(3-(1-(5-propylpyrimidin-2-yl)piperidin-4-yl)propoxy)phenyl)ethan-1-one]
≥ 130% | 100 to 1000 nM | O=C(Cc1ccc(OCCCC2CCN(c3ncc(Cl)cn3)CC2)cc1F)NCCCCC(=O)NC(CO)(CO)CO [Example 24, 5-[[2-[4-[3-[1-(5-chloropyrimidin-2-yl)-4-piperidyl]propoxy]-2-fluoro-phenyl]acetyl]amino]-N-[2-hydroxy-1,1-bis(hydroxymethyl)ethyl]pentanamide]
100 to 130% | 100 to 1000 nM | CC(C)OC(=O)N1CCC2(CC1)CC2CCCOc1cc(F)c(CC(=O)N2CC(CNC[C@H](O)[C@@H](O)[C@H](O)[C@H](O)CO)C2)c(F)c1 (stereo partly drawn) [Example 146, isopropyl 2-[3-[3,5-difluoro-4-[2-oxo-2-[3-[[[(2S,3R,4R,5R)-2,3,4,5,6-pentahydroxyhexyl]amino]methyl]azetidin-1-yl]ethyl]phenoxy]propyl]-6-azaspiro[2.5]octane-6-carboxylate]
100 to 130% | ≤ 100 nM | COCC1(CNCC(CO)(CO)CO)CCN(C(=O)Cc2ccc(OCCCC3CCN(c4ncc(Cl)cn4)CC3)cc2F)C1 (stereo not shown) [Example 122, 2-[4-[3-[1-(5-chloropyrimidin-2-yl)-4-piperidyl]propoxy]-2-fluoro-phenyl]-1-[3-[[[3-hydroxy-2,2-bis(hydroxymethyl)propyl]amino]methyl]-3-(methoxymethyl)pyrrolidin-1-yl]ethanone]
≥ 130% | ≤ 100 nM | CCOc1cnc(N2CCC(CCCOc3cc(F)c(CC(=O)N4CC[C@@H](CNCC(O)(CO)CO)C4)c(F)c3)CC2)nc1 [Example 156, 2-[4-[3-[1-(5-ethoxypyrimidin-2-yl)-4-piperidyl]propoxy]-2,6-difluoro-phenyl]-1-[(3S)-3-[[[2,3-dihydroxy-2-(hydroxymethyl)propyl]amino]methyl]pyrrolidin-1-yl]ethanone]
100 to 130% | ≤ 100 nM | CCOc1cnc(N2CCC(CCCOc3cc(F)c(CC(=O)N4CC[C@@H](CNC[C@H](O)[C@@H](O)[C@H](O)[C@H](O)CO)C4)c(F)c3)CC2)nc1 [Example 134, 2-[4-[3-[1-(5-ethoxypyrimidin-2-yl)-4-piperidyl]propoxy]-2,6-difluoro-phenyl]-1-[(3S)-3-[[[(2S,3R,4R,5R)-2,3,4,5,6-pentahydroxyhexyl]amino]methyl]pyrrolidin-1-yl]ethanone]
≥ 130% | ≤ 100 nM | O=C(Cc1c(F)cc(OCCCC2CCN(c3ncc(Cl)cn3)CC2)cc1F)N1CC[C@@H](CNCC(CO)(CO)CO)C1 [Example 151, 2-[4-[3-[1-(5-chloropyrimidin-2-yl)-4-piperidyl]propoxy]-2,6-difluoro-phenyl]-1-[(3S)-3-[[[3-hydroxy-2,2-bis(hydroxymethyl)propyl]amino]methyl]pyrrolidin-1-yl]ethanone]
100 to 130% | ≤ 100 nM | O=C(Cc1ccc(OCCCC2CCN(c3ncc(Cl)cn3)CC2)cc1F)N1CC(CN2C[C@H](O)[C@@H](O)C2)C1 (stereo in doubt) [Example 46, 2-[4-[3-[1-(5-chloropyrimidin-2-yl)-4-piperidyl]propoxy]-2-fluoro-phenyl]-1-[3-[[rac-(3S,4S)-3,4-dihydroxypyrrolidin-1-yl]methyl]azetidin-1-yl]ethanone]
≥ 130% | ≤ 100 nM | NS(=O)(=O)CCCCNC(=O)Cc1ccc(OCCCC2CCN(c3ncc(Cl)cn3)CC2)cc1F [Example 14, 2-[4-[3-[1-(5-chloropyrimidin-2-yl)-4-piperidyl]propoxy]-2-fluoro-phenyl]-N-(4-sulfamoylbutyl)acetamide]
100 to 130% | ≤ 100 nM | O=C(Cc1ccc(OCCCC2CCN(c3ncc(Cl)cn3)CC2)cc1F)N1CCC(O)(CNC[C@H](O)[C@H](O)[C@H](O)CO)CC1 [Example 187, 2-[4-[3-[1-(5-chloropyrimidin-2-yl)-4-piperidyl]propoxy]-2-fluoro-phenyl]-1-[4-hydroxy-4-[[[(2S,3S,4R)-2,3,4,5-tetrahydroxypentyl]amino]methyl]-1-piperidyl]ethanone]
